Measurements taken from PubChem BioAssay (NCI).
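How tested: cells in 96-well plates exposed to compound for 48 hours at five concentrations. The concentration for 50% growth inhibition is given as GI50. At the TGI there is no net growth.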

Key:
Assay in all cases: NCI-60 cell line screen, 48 h
HCC-2998 colon = test system: HCC-2998 colon
SNB-75 CNS = test system: SNB-75 CNS
M14 melanoma = test system: M14 melanoma
786-0 renal = test system: 786-0 renal
KM12 colon = test system: KM12 colon
NCI-H23 lung = test system: NCI-H23 lung
COLO 205 colon = test system: COLO 205 colon
HCT-15 colon = test system: HCT-15 colon
SF-539 CNS = test system: SF-539 CNS
NCI-H226 lung = test system: NCI-H226 lung
OVCAR-3 ovarian = test system: OVCAR-3 ovarian
HOP-62 NSCLC = test system: HOP-62 NSCLC
SF-268 CNS = test system: SF-268 CNS
BT-549 breast = test system: BT-549 breast
ACHN renal = test system: ACHN renal
SR leukemia = test system: SR leukemia
MOLT-4 leukemia = test system: MOLT-4 leukemia
DU-145 prostate = test system: DU-145 prostate
TK-10 renal = test system: TK-10 renal
SNB-19 CNS = test system: SNB-19 CNS
T-47D breast = test system: T-47D breast
MCF7 breast = test system: MCF7 breast
UO-31 renal = test system: UO-31 renal
K-562 leukemia = test system: K-562 leukemia
NCI-H522 lung = test system: NCI-H522 lung
CCRF-CEM leukemia = test system: CCRF-CEM leukemia
SK-MEL-5 melanoma = test system: SK-MEL-5 melanoma
HCT-116 colon = test system: HCT-116 colon
PC-3 prostate = test system: PC-3 prostate
RXF 393 renal = test system: RXF 393 renal
NCI/ADR-RES ovarian = test system: NCI/ADR-RES ovarian
UACC-257 melanoma = test system: UACC-257 melanoma
MDA-MB-435 = test system: MDA-MB-435
RPMI-8226 leukemia = test system: RPMI-8226 leukemia
A549 NSCLC = test system: A549 NSCLC
HT29 colon = test system: HT29 colon
NCI-H460 lung = test system: NCI-H460 lung
HL-60(TB) leukemia = test system: HL-60(TB) leukemia
HS 578T breast = test system: HS 578T breast
MALME-3M melanoma = test system: MALME-3M melanoma
HOP-92 NSCLC = test system: HOP-92 NSCLC
U251 CNS = test system: U251 CNS
LOX IMVI melanoma = test system: LOX IMVI melanoma
SW-620 colon = test system: SW-620 colon
SK-OV-3 ovarian = test system: SK-OV-3 ovarian
SK-MEL-28 melanoma = test system: SK-MEL-28 melanoma
MDA-MB-231 breast = test system: MDA-MB-231 breast
EKVX NSCLC = test system: EKVX NSCLC
IGROV1 ovarian = test system: IGROV1 ovarian
SK-MEL-2 melanoma = test system: SK-MEL-2 melanoma
CAKI-1 renal = test system: CAKI-1 renal
OVCAR-4 ovarian = test system: OVCAR-4 ovarian
SF-295 CNS = test system: SF-295 CNS
A498 renal = test system: A498 renal
SN12C renal = test system: SN12C renal
OVCAR-5 ovarian = test system: OVCAR-5 ovarian
OVCAR-8 ovarian = test system: OVCAR-8 ovarian
UACC-62 melanoma = test system: UACC-62 melanoma

`CC1=C([Te]c2ccc(O)cc2)C(=O)c2ccccc2C1=O` gave a GI50 (HCC-2998 colon) of 2880 nM, a TGI (HCC-2998 colon) of 9660 nM and a GI50 (SNB-75 CNS) of 1310 nM. The TGI (SNB-75 CNS) was 9020 nM, the GI50 (M14 melanoma) was 1880 nM and the TGI (M14 melanoma) was 5050 nM. The GI50 (786-0 renal) was 2610 nM, the TGI (786-0 renal) was 7880 nM and the GI50 (KM12 colon) was 1300 nM. For the same compound, the TGI (KM12 colon) was 3270 nM, the GI50 (NCI-H23 lung) was 1840 nM and the TGI (NCI-H23 lung) was 5840 nM. It also gave a GI50 (COLO 205 colon) of 383 nM, a TGI (COLO 205 colon) of 1400 nM and a GI50 (HCT-15 colon) of 1010 nM. The TGI (HCT-15 colon) was 4310 nM, the GI50 (SF-539 CNS) was 1800 nM and the TGI (SF-539 CNS) was 4230 nM. For the same compound, the GI50 (NCI-H226 lung) was 330 nM, the TGI (NCI-H226 lung) was 1570 nM and the GI50 (OVCAR-3 ovarian) was 1440 nM. It also gave a TGI (OVCAR-3 ovarian) of 2790 nM, a GI50 (HOP-62 NSCLC) of 900 nM and a TGI (HOP-62 NSCLC) of 5150 nM. The GI50 (SF-268 CNS) was 2630 nM, the TGI (SF-268 CNS) was 9030 nM and the GI50 (BT-549 breast) was 448 nM. It also gave a TGI (BT-549 breast) of 4220 nM, a GI50 (ACHN renal) of 1540 nM and a TGI (ACHN renal) of 3850 nM. It also gave a GI50 (SR leukemia) of 461 nM, a TGI (SR leukemia) of 2670 nM and a GI50 (MOLT-4 leukemia) of 907 nM. It also gave a TGI (MOLT-4 leukemia) of 4300 nM, a GI50 (DU-145 prostate) of 2320 nM and a TGI (DU-145 prostate) of 6020 nM. It also gave a GI50 (TK-10 renal) of 2670 nM, a TGI (TK-10 renal) of 7600 nM and a GI50 (SNB-19 CNS) of 2800 nM. It also gave a TGI (SNB-19 CNS) of 10700 nM, a GI50 (T-47D breast) of 1100 nM and a TGI (T-47D breast) of 3250 nM. For the same compound, the GI50 (MCF7 breast) was 1490 nM, the TGI (MCF7 breast) was 4080 nM and the GI50 (UO-31 renal) was 1560 nM. The TGI (UO-31 renal) was 4980 nM, the GI50 (K-562 leukemia) was 1930 nM and the TGI (K-562 leukemia) was 4360 nM. It also gave a GI50 (NCI-H522 lung) of 2160 nM, a TGI (NCI-H522 lung) of 7310 nM and a GI50 (CCRF-CEM leukemia) of 806 nM. The TGI (CCRF-CEM leukemia) was 4380 nM, the GI50 (SK-MEL-5 melanoma) was 1530 nM and the TGI (SK-MEL-5 melanoma) was 2920 nM. It also gave a GI50 (HCT-116 colon) of 715 nM, a TGI (HCT-116 colon) of 2050 nM and a GI50 (PC-3 prostate) of 1530 nM. It also gave a TGI (PC-3 prostate) of 5110 nM, a GI50 (RXF 393 renal) of 2420 nM and a TGI (RXF 393 renal) of 9460 nM. For the same compound, the GI50 (NCI/ADR-RES ovarian) was 2420 nM, the TGI (NCI/ADR-RES ovarian) was 8300 nM and the GI50 (UACC-257 melanoma) was 2910 nM. The TGI (UACC-257 melanoma) was 10400 nM, the GI50 (MDA-MB-435) was 2350 nM and the TGI (MDA-MB-435) was 5790 nM. The GI50 (RPMI-8226 leukemia) was 1160 nM, the TGI (RPMI-8226 leukemia) was 4510 nM and the GI50 (A549 NSCLC) was 404 nM. The TGI (A549 NSCLC) was 4180 nM, the GI50 (HT29 colon) was 396 nM and the TGI (HT29 colon) was 1550 nM. The GI50 (NCI-H460 lung) was 347 nM, the TGI (NCI-H460 lung) was 1620 nM and the GI50 (HL-60(TB) leukemia) was 1830 nM. It also gave a TGI (HL-60(TB) leukemia) of 5000 nM, a GI50 (HS 578T breast) of 1830 nM and a TGI (HS 578T breast) of 7600 nM. It also gave a GI50 (MALME-3M melanoma) of 2790 nM, a TGI (MALME-3M melanoma) of 7120 nM and a GI50 (HOP-92 NSCLC) of 1090 nM. The TGI (HOP-92 NSCLC) was 2750 nM, the GI50 (U251 CNS) was 1310 nM and the TGI (U251 CNS) was 7280 nM. For the same compound, the GI50 (LOX IMVI melanoma) was 1690 nM, the TGI (LOX IMVI melanoma) was 4350 nM and the GI50 (SW-620 colon) was 1470 nM. For the same compound, the TGI (SW-620 colon) was 3150 nM, the GI50 (SK-OV-3 ovarian) was 1660 nM and the TGI (SK-OV-3 ovarian) was 4520 nM. The GI50 (SK-MEL-28 melanoma) was 2410 nM, the TGI (SK-MEL-28 melanoma) was 6090 nM and the GI50 (MDA-MB-231 breast) was 1890 nM. For the same compound, the TGI (MDA-MB-231 breast) was 5400 nM, the GI50 (EKVX NSCLC) was 428 nM and the TGI (EKVX NSCLC) was 6580 nM. The GI50 (IGROV1 ovarian) was 1080 nM, the TGI (IGROV1 ovarian) was 4910 nM and the GI50 (SK-MEL-2 melanoma) was 2780 nM. It also gave a TGI (SK-MEL-2 melanoma) of 8150 nM, a GI50 (CAKI-1 renal) of 2210 nM and a TGI (CAKI-1 renal) of 7410 nM. It also gave a GI50 (OVCAR-4 ovarian) of 1950 nM, a TGI (OVCAR-4 ovarian) of 4380 nM and a GI50 (SF-295 CNS) of 348 nM. It also gave a TGI (SF-295 CNS) of 1980 nM, a GI50 (A498 renal) of 1360 nM and a TGI (A498 renal) of 3010 nM. The GI50 (SN12C renal) was 2290 nM, the TGI (SN12C renal) was 9330 nM and the GI50 (OVCAR-5 ovarian) was 2440 nM. It also gave a TGI (OVCAR-5 ovarian) of 7750 nM, a GI50 (OVCAR-8 ovarian) of 2400 nM and a TGI (OVCAR-8 ovarian) of 8340 nM. It also gave a GI50 (UACC-62 melanoma) of 1600 nM and a TGI (UACC-62 melanoma) of 4010 nM.
